The results in this text go back to patent US20040077881A1, “$G(d)1-pyrrolines used in pest control” (priority 2001, published 2004).

A short description of data set [1]: logP determination by HPLC (EEC directive 79/831 Annex V.A8, reversed-phase C 18). The data set is classed as physicochemical. The note with it: for chromatographic logP: reversed-phase HPLC column (C 18); for log P2: second HPLC peak of the mixture of diastereomers. The method, then: The stated logP values were determined in accordance with EEC directive 79/831 Annex V.A8 by HPLC (High Performance Liquid Chromatography) using a reversed-phase column (C 18). Temperature: 43° C. In the acidic range, the determination was carried out at pH 2.3 using the mobile phases 0.1% aqueous phosphoric acid and acetonitrile; linear gradient from 10% acetonitrile to 90% acetonitrile.

Data set [2] deals with larvae of the mustard beetle (Phaedon cochleariae). Kind of data set: Phaedon larvae test. The conditions noted are these: 168 h, cabbage leaves dipped, after 7 d, read-out: Kill rate in % after 7 d. Format: in vivo. The method, then: [table] To produce a suitable preparation of active compound, 1 part by weight of active compound is mixed with the stated amounts of solvent and emulsifier, and the concentrate is diluted with emulsifier-containing water to the desired concentration. Cabbage leaves (Brassica oleracea) are treated by being dipped into the preparation of active compound of the desired concentration and are populated with larvae of the mustard beetle (Phaedon cochleariae) whilst the leaves are still moist. After the desired period of time, the kill in % is […]. 100% means that all beetle larvae have been killed; 0% means that none of the beetle larvae have been killed.

Data set [3] deals with greenhouse red spider mite (Tetranychus urticae). Kind of data set: Tetranychus test (OP-resistant/dip treatment). Format: in vivo. The note with it: 100 ppm, bean plants dipped, OP-resistant. The method, then: [table] To produce a suitable preparation of active compound, 1 part by weight of active compound is mixed with the stated amounts of solvent and emulsifier, and the concentrate is diluted with emulsifier-containing water to the desired concentration. Bean plants (Phaseolus vulgaris) which are heavily infested by all stages of the greenhouse red spider mite (Tetranychus urticae) are dipped into a preparation of active compound of the desired concentration. After the desired period of time, the effect in % is determined. 100% means that all spider mites have been killed; 0% means that none of the spider mites have been killed.

Where [4] appears, read: pH 2.3, first HPLC peak of the mixture of diastereomers, reversed-phase C 18, 43° C., pH 2.3, read-out: log P1.
Setting [5] is: reversed-phase C 18, 43° C., pH 2.3.
Setting [6] is: pH 2.3, HPLC, reversed-phase column (C 18), 43° C., pH 2.3, 0.1% aqueous phosphoric acid/acetonitrile, read-out: log P.
Where [7] appears, read: pH 2.3, second HPLC peak of the mixture of diastereomers, reversed-phase C 18, 43° C., pH 2.3, read-out: log P2.

Where two headings read alike, the source gives them in different places.

Consider `Fc1cccc(F)c1C1=NC(c2ccc(-c3ccc(OC(F)(F)F)cc3)cc2)CC1Cl` (stereo not drawn) [Example 1, 4-chloro-5-(2,6-difluorophenyl)-2-[4′-(trifluoromethoxy)-1,1′-biphenyl-4-yl]-3,4-dihydro-2H-pyrrole], for which the chromatographic logP in data set [1] (setting [4]) turned out to be 5.31. For the same molecule, the “log P2” value in data set [1] (setting [5]) was found to be 5.39.
Take `Fc1cccc(F)c1C1=N[C@@H](c2ccc(-c3ccc(OC(F)(F)F)cc3)cc2)CC1Cl` (stereo partly drawn) [Example 2, (2R)-4-chloro-5-(2,6-difluorophenyl)-2-[4′-(trifluoromethoxy)-1,1′-biphenyl-4-yl]-3,4-dihydro-2H-pyrrole]: in data set [1] (setting [4]), the chromatographic logP came out at 5.31. Besides, the “log P2” value in data set [1] (setting [5]) amounted to 5.39.
For `O=S(=O)(Oc1ccc([C@H]2CC(Cl)C(c3c(F)cccc3F)=N2)cc1)C(F)(F)F` (stereo partly drawn) [Example 3, 4-[(2R)-4-chloro-5-(2,6-difluorophenyl)-3,4-dihydro-2H-pyrrol-2-yl]phenyl-trifluoromethanesulphonate] the same measures were 4.34 and 4.40.
Turning to `O=S(=O)(Oc1ccc([C@H]2CC(Cl)(Cl)C(c3c(F)cccc3F)=N2)cc1)C(F)(F)F` [Example 5], in data set [1] (setting [6]), the chromatographic logP came out at 4.88.
As for `Fc1cccc(F)c1C1=N[C@@H](c2ccc(-c3ccc(OC(F)(F)F)cc3)cc2)CC1(Cl)Cl` [Example 6, (2R)-4,4-dichloro-5-(2,6-difluorophenyl)-2-[4′-(trifluoromethoxy)-1,1′-biphenyl-4-yl]-3,4-dihydro-2H-pyrrole], the chromatographic logP in data set [1] (setting [6]) came out at 5.91.
Regarding `O=S(=O)(Oc1ccc(-c2ccc([C@H]3C[C@H](Cl)C(c4c(F)cccc4F)=N3)cc2)cc1)C(F)(F)F` [Example 7, 4′-[(2R)-4-chloro-5-(2,6-difluorophenyl)-3,4-dihydro-2-yl]-1,1′-biphenyl-4-yl trifluoromethanesulphonate], the chromatographic logP in data set [1] (setting [6]) was found to be 5.22.
Turning to `O=S(=O)(Oc1ccc([C@H]2CC(Br)C(c3c(F)cccc3F)=N2)cc1)C(F)(F)F` (stereo partly drawn) [Example 8, 4-[(2R)-4-bromo-5-(2,6-difluorophenyl)-3,4-dihydro-2-pyrrol-2-yl]phenyl-trifluoromethanesulphonate], the chromatographic logP worked out at 4.39 in data set [1] (setting [4]) and 4.49 in data set [1] (setting [7]).
Consider `O=S(=O)(Oc1ccc([C@H]2CC(Br)(Br)C(c3c(F)cccc3F)=N2)cc1)C(F)(F)F` [Example 9, 4-[(2R)-4,4-dibromo-5-(2,6-difluorophenyl)-3,4-dihydro-2H-pyrrol-2-yl]phenyl-trifluoromethanesulphonate], for which, in data set [1] (setting [6]), the chromatographic logP was determined as 4.97.
As for `Fc1cccc(F)c1C1=N[C@@H](c2ccc(-c3ccc(OC(F)(F)F)cc3)cc2)CC1(Br)Br` [Example 10, (2R)-4,4-dibromo-5-(2,6-difluorophenyl)-2-[4′-(trifluoromethoxy)-1,1′-biphenyl-4-yl]-3,4-dihydro-2H-pyrrole], in data set [1] (setting [6]), the chromatographic logP turned out to be 6.01.
For `CC1(C)CC(c2ccc(-c3ccc(OC(F)(F)F)cc3)cc2)N=C1c1c(F)cccc1F` (stereo not drawn) [Example 11, 4,4-dimethyl-5-(2,6-difluorophenyl)-2-[4′-(trifluoromethoxy)-1,1′-biphenyl-4-yl]-3,4-dihydro-2H-pyrrole], in data set [1] (setting [6]), the chromatographic logP stood at 5.67.
`O=S(=O)(O)C1CC(c2ccc(Br)cc2)N=C1c1c(F)cccc1F` (stereo not drawn) [Example 12, 2-(4-bromophenyl)-5-(2,6-difluorophenyl)-3,4-dihydro-2H-pyrrole-4-sulphonic acid]: the chromatographic logP in data set [1] (setting [4]) stood at 1.4; in data set [1] (setting [7]), 1.6.
As to `O=S(=O)(O)C1CC(c2ccc(-c3ccc(OC(F)(F)F)cc3)cc2)N=C1c1c(F)cccc1F` (stereo not drawn) [Example 13, 5-(2,6-difluorophenyl)-2-[4′-(trifluoromethoxy)-1,1′-biphenyl-4-yl]-3,4-dihydro-2H-pyrrole-4-sulphonic acid], the “log P1” value in data set [1] (first HPLC peak of the mixture of diastereomers, reversed-phase C 18, 43° C., pH 2.3) came to 2.29. The chromatographic logP came out at 2.32 in data set [1] (setting [4]) and 2.46 in data set [1] (setting [7]).
For `Fc1cccc(F)c1C1=N[C@@H](c2ccc(-c3ccc(OC(F)(F)F)cc3)cc2)CC1=Cc1ccc(Br)cc1` [Example 14, (2R)-4-(4-bromobenzylidene)-5-(2,6-difluorophenyl)-2-[4′-(trifluoromethoxy)-1,1′-biphenyl-4-yl]-3,4-dihydro-2H-pyrrole], the chromatographic logP in data set [1] (setting [6]) was 6.43.
Same read-out and setting: next, `CCOS(=O)(=O)C1CC(c2ccc(-c3ccc(OC(F)(F)F)cc3)cc2)N=C1c1c(F)cccc1F` (stereo not drawn) [Example 15, ethyl 5-(2,6-difluorophenyl)-2-[4′-(trifluoromethoxy)-1,1′-biphenyl-4-yl]-3,4-dihydro-2H-pyrrole-4-sulphonate]: 4.77.
Still for that read-out and setting: under `Fc1cccc(F)c1C1=NC(c2ccc(-c3ccc(OC(F)(F)F)cc3)cc2)CC1=Cc1ccccc1` (stereo not drawn) [Example 16, 4-benzylidene-5-(2,6-difluorophenyl)-2-[4′-(trifluoromethoxy)-1,1′-biphenyl-4-yl]-3,4-dihydro-2H-pyrrole] stands 5.77; under `CC(C)C=C1CC(c2ccc(-c3ccc(OC(F)(F)F)cc3)cc2)N=C1c1c(F)cccc1F` (stereo not drawn) [Example 17, 4-(2-methylpropylidene)-5-(2,6-difluorophenyl)-2-[4′-(trifluoromethoxy)-1,1′-biphenyl-4-yl]-3,4-dihydro-2H-pyrrole], 5.8.
Turning to `Fc1cccc(F)c1C1=NC(c2ccc(-c3ccc(OC(F)(F)F)cc3)cc2)CC1(Cl)Cl` (stereo not drawn) [drawing 56], the pest or weed control at 1000 ppm in data set [2] is 100%.
With `Fc1cccc(F)c1C1=NC(c2ccc(-c3ccc(OC(F)(F)F)cc3)cc2)CC1Cl` (stereo not drawn) [drawing 57], the pest or weed control at 1000 ppm in data set [2] came to 100%.
For `Fc1cccc(F)c1C1=N[C@@H](c2ccc(-c3ccc(OC(F)(F)F)cc3)cc2)CC1(Cl)Cl` [drawing 58], the pest or weed control at 1000 ppm in data set [2] is 100%.
On the same count and under the same terms, under `Fc1cccc(F)c1C1=N[C@@H](c2ccc(-c3ccc(OC(F)(F)F)cc3)cc2)CC1(Br)Br` [drawing 59] stands 100%.
On the same count and under the same terms, next, `Fc1cccc(F)c1C1=N[C@@H](c2ccc(-c3ccc(OC(F)(F)F)cc3)cc2)C/C1=C\c1ccc(Br)cc1` [drawing 60]: 100%; `O=S(=O)(Oc1ccc([C@H]2CC(Cl)C(c3c(F)cccc3F)=N2)cc1)C(F)(F)F` (stereo partly drawn) [drawing 61]: 100%.
Same read-out and setting: under `O=S(=O)(Oc1ccc([C@H]2CC(Cl)(Cl)C(c3c(F)cccc3F)=N2)cc1)C(F)(F)F` [drawing 62] stands 100%.
For the molecule `O=S(=O)(Oc1ccc([C@H]2CC(Br)C(c3c(F)cccc3F)=N2)cc1)C(F)(F)F` (stereo partly drawn) [drawing 63], the pest or weed control at 1000 ppm in data set [2] amounted to 100%.
Still for that read-out and setting: under `O=S(=O)(Oc1ccc(-c2ccc([C@H]3C[C@H](Cl)C(c4c(F)cccc4F)=N3)cc2)cc1)C(F)(F)F` [drawing 64] stands 100%.
For the molecule `Fc1cccc(F)c1C1=NC(c2ccc(-c3ccc(OC(F)(F)F)cc3)cc2)CC1(Cl)Cl` (stereo not drawn) [drawing 76], the “Kill rate in % after 7 d” value in data set [3] is given as 98%.
Still for that read-out and setting: next, `Fc1cccc(F)c1C1=NC(c2ccc(-c3ccc(OC(F)(F)F)cc3)cc2)CC1Cl` (stereo not drawn) [drawing 77]: 98%; `Fc1cccc(F)c1C1=N[C@@H](c2ccc(-c3ccc(OC(F)(F)F)cc3)cc2)CC1(Cl)Cl` [drawing 78]: 98%.
`Fc1cccc(F)c1C1=N[C@@H](c2ccc(-c3ccc(OC(F)(F)F)cc3)cc2)CC1(Br)Br` [drawing 79]: the “Kill rate in % after 7 d” value in data set [3] is given as 98%.
Still for that read-out and setting: under `Fc1cccc(F)c1C1=N[C@@H](c2ccc(-c3ccc(OC(F)(F)F)cc3)cc2)C/C1=C\c1ccc(Br)cc1` [drawing 80] stands 98%.
The same measure, in the same setting: next, `O=S(=O)(Oc1ccc([C@H]2CC(Br)C(c3c(F)cccc3F)=N2)cc1)C(F)(F)F` (stereo partly drawn) [drawing 81]: 98%; `O=S(=O)(Oc1ccc([C@H]2CC(Cl)(Cl)C(c3c(F)cccc3F)=N2)cc1)C(F)(F)F` [drawing 82]: 95%; `O=S(=O)(Oc1ccc(-c2ccc([C@H]3C[C@H](Cl)C(c4c(F)cccc4F)=N3)cc2)cc1)C(F)(F)F` [drawing 83]: 98%.
On to `CC(C)(C)OC(=O)N1C(=O)C(C)(C)CC1c1ccc(-c2ccc(OC(F)(F)F)cc2)cc1` (stereo not drawn) [tert-butyl 3,3-dimethyl-2-oxo-5-[4′-(trifluoromethoxy)-1,1′-biphenyl-4-yl]-1-pyrrolidinecarboxylate], for which the chromatographic logP in data set [1] (HPLC, reversed-phase column (C 18), 43° C., pH 2.3, 0.1% aqueous phosphoric acid/acetonitrile, read-out: log P) stood at 4.99.
On to `CC(C)(C)OC(=O)NC(CC(C)(C)C(=O)c1c(F)cccc1F)c1ccc(-c2ccc(OC(F)(F)F)cc2)cc1` (stereo not drawn) [tert-butyl 4-(2,6-difluorophenyl)-3,3-dimethyl-4-oxo-1-[4′-(trifluoromethoxy)-1,1′-biphenyl-4-yl]butylcarbamate], for which, in data set [1] (setting [6]), the chromatographic logP was 6.45.
